Data on 16 compounds can be found in publication PMC11458808, “Identification and development of a series of disubstituted piperazines for the treatment of Chagas disease” (European Journal of Medicinal Chemistry, 2022).

In brackets after ≈: the same amount, converted by molar mass.

The nature of data set [1]: Aqueous (kinetic) solubility by CAD. The following applies: kinetic solubility measured by CAD. Format: physicochemical. On the procedure:
2.1 Aqueous solubility: This assay was conducted as previously described in [4].

For data set [2], the system named is intracellular T. cruzi X10/7 A1 amastigotes. The data set can be described thus: Intracellular T. cruzi assay. Format: cell-based, Trypanosoma cruzi. Conditions: for EC50: Trypanosoma cruzi, potency against intracellular T. cruzi amastigotes, at least three independent replicates, standard deviations ≤0.2, read-out: T. cruzi (pEC50) (converted); for Activity in the intracellular T. cruzi assay (in words): purified compound. On the procedure: 1.1 Intracellular T. cruzi assay: Potency against intracellular T. cruzi X10/7 A1 amastigotes was determined as described previously with as sole modification that the compound treatment duration was increased from 72h to 96h.

A short description of data set [3]: Intrinsic clearance in mouse liver microsomes. Format: in vitro ADME. The following applies: for Mouse CLi: mouse liver microsomal intrinsic clearance. On the procedure:
2.2 Intrinsic clearance: This assay was conducted as previously described in [5].
A general note: Microsomes from liver hold many membrane-bound enzymes, among them those of drug oxidation.

A short description of data set [4]: ChromLogD pH7.4 (chromatographic hydrophobicity index). Format: physicochemical. Conditions: pH 7.4; CHIpH7.4 × 0.0857–2; read-out: ChromlogDpH7.4.

For the compound `COc1ccc(S(=O)(=O)Nc2ccc(CN3CCN(C(=O)C4CC(O)(C(F)(F)F)C4)CC3)cc2)cc1` (stereo not shown) [Compound 22, N-(4-((4-(3-hydroxy-3-(trifluoromethyl)cyclobutane-1-carbonyl)piperazin-1-yl)methyl)phenyl)-4-methoxybenzenesulfonamide], in data set [1], the solubility (usually the dissolved amount per volume that the medium holds) was at least 374 µM. Besides, in data set [2], the EC50 is over 50.1 µM. The “Mouse CLi” value in data set [3] is 8.0 mL/min/g. Also, the chromatographic logD in data set [4] came out at 4.3.
In turn, `COc1ccc(S(=O)(=O)Nc2nnc(CN3CCN(C(=O)c4cccc(Cl)c4)CC3)o2)cc1` [Compound 41, N-[5-[[4-(3-chlorobenzoyl)piperazin-1-yl]methyl]-1,3,4-oxadiazol-2-yl]-4-methoxy-benzenesulfonamide] returned a solubility in data set [1] of at least 404 µM. Also, in data set [2], the EC50 was over 50.1 µM and the “Activity in the intracellular T. cruzi assay (in words)” value was “inactive”. Besides, the “Mouse CLi” value in data set [3] came to 0.6 mL/min/g. The chromatographic logD in data set [4] is 1.9.
As for `COc1ccc(S(=O)(=O)Nc2ccc(CN3CC[C@H](NC(=O)c4cccc(Cl)c4)C3)cc2)cc1` [Compound 30, (S)-3-chloro-N-(1-(4-((4-methoxyphenyl)sulfonamido)benzyl)pyrrolidin-3-yl)benzamide], the solubility in data set [1] came out at 51 µM (≈ 25.5 µg/mL). Besides, the EC50 in data set [2] was 50.1 µM. In addition, the “Mouse CLi” value in data set [3] is reported as over 50 mL/min/g. Also, in data set [4], the chromatographic logD was 5.1.
In data set [1], `CN1CCN(S(=O)(=O)Nc2ccc(CN3CCN(C(=O)c4cccc(Cl)c4)CC3)cc2)CC1` [Compound 9, N-(4-((4-(3-chlorobenzoyl)piperazin-1-yl)methyl)phenyl)-4-methylpiperazine-1-sulfonamide] gave a solubility of at least 430 µM. Further, in data set [2], the EC50 was 15.8 µM. In data set [3], the “Mouse CLi” value is listed as 32 mL/min/g. Also, in data set [4], the chromatographic logD is 4.1.
On to `COc1ccc(S(=O)(=O)Nc2ccc(CN3CCN(C(=O)c4ccnc(C)n4)CC3)cc2)cc1` [Compound 19, 4-methoxy-N-(4-((4-(2-methylpyrimidine-4-carbonyl)piperazin-1-yl)methyl)phenyl)benzenesulfonamide], for which, in data set [1], the concentration in solution (solubility) came to 414 µM (≈ 199 µg/mL). In addition, the EC50 in data set [2] was over 50.1 µM. For the same compound, the “Mouse CLi” value in data set [3] stood at 12 mL/min/g. Moreover, the chromatographic logD in data set [4] was 3.2.
For `COc1ccc(S(=O)(=O)Nc2ccc(CN3CCN(C(=O)c4cccc(Cl)c4)CC3)cc2)cc1` [Compound 4, N-(4-((4-(3-chlorobenzoyl)piperazin-1-yl)methyl)phenyl)-4-methoxybenzenesulfonamide], the solubility in data set [1] came to 43 µM (≈ 21.5 µg/mL). Further, the EC50 in data set [2] was 0.501 µM. Also, in data set [3], the “Clearance (mouse liver microsomal)” value was over 50 mL/min/g and the “Mouse CLi” value was over 50 mL/min/g. The chromatographic logD in data set [4] turned out to be 5.6.
The compound `O=C(c1cccc(Cl)c1)N1CCN(Cc2ccc(NS(=O)(=O)c3ccccc3)cc2)CC1` [Compound 3, N-(4-((4-(3-chlorobenzoyl)piperazin-1-yl)methyl)phenyl)benzenesulfonamide] came in with a solubility in data set [1] of 67 µM (≈ 31.5 µg/mL). Besides, in data set [2], the EC50 is 1.58 µM. In data set [3], the “Mouse CLi” value is recorded as over 50 mL/min/g. Further, the chromatographic logD in data set [4] came out at 5.5.
`COc1ccc(S(=O)(=O)Nc2ncc(CN3CCN(C(=O)c4cccc(Cl)c4)CC3)nc2OC)cc1` [Compound 46, N-(5-((4-(3-chlorobenzoyl)piperazin-1-yl)methyl)-3-methoxypyrazin-2-yl)-4-methoxybenzenesulfonamide]: the solubility in data set [1] is at least 443 µM. In data set [2], the EC50 was over 50.1 µM and the “Activity in the intracellular T. cruzi assay (in words)” value is listed as “lacked any activity”. Further, in data set [3], the “Mouse CLi” value was found to be 1.2 mL/min/g. The chromatographic logD in data set [4] worked out at 4.
In data set [1], `COc1ccc(S(=O)(=O)Nc2ccc(CN3CCN(C(=O)c4ccccc4)CC3)cc2)cc1` [Compound 10, N-(4-((4-benzoylpiperazin-1-yl)methyl)phenyl)-4-methoxybenzenesulfonamide] had a solubility of 116 µM (≈ 54 µg/mL). For the same compound, in data set [2], the EC50 was 3.16 µM. For the same compound, in data set [3], the “Mouse CLi” value is over 50 mL/min/g. Moreover, the chromatographic logD in data set [4] was 4.6.
The compound `COc1ccc(S(=O)(=O)Nc2ccc(OC3CCN(C(=O)c4cccc(Cl)c4)CC3)cc2)cc1` [Compound 28, N-(4-((1-(3-chlorobenzoyl)piperidin-4-yl)oxy)phenyl)-4-methoxybenzenesulfonamide] came in with a solubility in data set [1] of under 1 µM. In addition, the EC50 in data set [2] is 5.01 µM. Also, the “Mouse CLi” value in data set [3] is on record as 37 mL/min/g. The chromatographic logD in data set [4] worked out at 5.9.
In data set [1], `Cc1ccc(S(=O)(=O)Nc2ccc(CN[C@H]3CCN(C(=O)c4cccc(Cl)c4)C3)cc2)cc1` [Compound 31, (S)-N-(4-(((1-(3-chlorobenzoyl)pyrrolidin-3-yl)amino)methyl)phenyl)-4-methylbenzenesulfonamide] yielded a solubility of 72 µM (≈ 34.8 µg/mL). In addition, the EC50 in data set [2] is 10 µM. Also, the “Mouse CLi” value in data set [3] is reported as over 50 mL/min/g. In addition, the chromatographic logD in data set [4] was 4.9.
In turn, `Cc1ccc(S(=O)(=O)Nc2ccc(CN3CCN(C(=O)C4CCc5ccccc54)CC3)cc2)cc1` (stereo not shown) [Compound 24, N-(4-((4-(2,3-dihydro-1H-indene-1-carbonyl)piperazin-1-yl)methyl)phenyl)-4-methylbenzenesulfonamide] had a solubility in data set [1] of 35 µM (≈ 17.1 µg/mL). The EC50 in data set [2] was 3.98 µM. Besides, the “Mouse CLi” value in data set [3] is reported as over 50 mL/min/g. Further, the chromatographic logD in data set [4] worked out at 5.8.
In turn, `O=C(c1cccc(Cl)c1)N1CCN(Cc2ccc(NS(=O)(=O)c3ccc4c(c3)OCO4)cc2)CC1` [Compound 6, N-(4-((4-(3-chlorobenzoyl)piperazin-1-yl)methyl)phenyl)benzo[d][1,3]dioxole-5-sulfonamide] returned a solubility in data set [1] of 33 µM (≈ 17 µg/mL). Besides, the EC50 in data set [2] was 0.158 µM. Besides, the “Mouse CLi” value in data set [3] is over 50 mL/min/g. Further, the chromatographic logD in data set [4] was found to be 5.2.
Consider `COc1ccc(S(=O)(=O)Nc2ccc(CN3CCN(C(=O)c4ccc(OC)c(Cl)c4)CC3)cc2)cc1` [Compound 13, N-[4-[[4-(3-chloro-4-methoxy-benzoyl)piperazin-1-yl]methyl]phenyl]-4-methoxy-benzenesulfonamide], for which, in data set [1], the solubility was 18 µM (≈ 9.54 µg/mL). Also, the EC50 in data set [2] was 3.16 µM. Besides, in data set [3], the “Mouse CLi” value is reported as over 50 mL/min/g. The chromatographic logD in data set [4] came to 5.1.
In the same order, the values of `Cc1ccc(S(=O)(=O)Nc2ccc(CN[C@@H]3CCN(C(=O)c4cccc(Cl)c4)C3)cc2)cc1` [Compound 32, (R)-N-(4-(((1-(3-chlorobenzoyl)pyrrolidin-3-yl)amino)methyl)phenyl)-4-methylbenzenesulfonamide] are 75 µM (≈ 36.3 µg/mL), 15.8 µM, 48 mL/min/g and 4.9.
Take `Cc1ccc(S(=O)(=O)Nc2ccc(CN3CCC(NC(=O)c4cccc(Cl)c4)CC3)cc2)cc1` [Compound 37, 3-chloro-N-(1-(4-((4-methylphenyl)sulfonamido)benzyl)piperidin-4-yl)benzamide]: the solubility in data set [1] worked out at 42 µM (≈ 20.9 µg/mL). In data set [2], the EC50 is 3.16 µM. In addition, in data set [3], the “Mouse CLi” value is reported as 37 mL/min/g. Moreover, the chromatographic logD in data set [4] is 5.3.
